Reference: patent publication US20200247761A1, “SULFONAMIDE OR AMIDE COMPOUNDS, COMPOSITIONS AND METHODS FOR THE PROPHYLAXIS AND/OR TREATMENT OF AUTOIMMUNE, INFLAMMATION OR INFECTION RELATED DISORDERS” (TAIWANJ PHARMACEUTICALS CO., LTD, priority 2017, published 2020)
Like-named read-outs stand apart in the source and are kept apart here.

Tests used:
Format in all cases: cell-based
[1] = molecular target: T1, Toll-like receptor 4 (TLR4) (Homo sapiens, UniProt O00206); experiment: TLR4 activity: NF-κB-inducible SEAP reporter in LPS-stimulated TLR4-expressing HEK293 cells; details: for inhibition at 10 µM: Test Con. 10 μM, LPS 10 ng/ml, 16-24 hours, HEK293 cells expressing TLR4, read-out: TLR-4 inhibition (%) mean; for activity towards TLR-4 (in words): summary of Table 1 (10, 20 or 100 μM)
T1 construct: expressed in transfected cells; host or cells: HEK293 cells engineered to express TLR4
T1 sequence (O00206 24-839, species assumed): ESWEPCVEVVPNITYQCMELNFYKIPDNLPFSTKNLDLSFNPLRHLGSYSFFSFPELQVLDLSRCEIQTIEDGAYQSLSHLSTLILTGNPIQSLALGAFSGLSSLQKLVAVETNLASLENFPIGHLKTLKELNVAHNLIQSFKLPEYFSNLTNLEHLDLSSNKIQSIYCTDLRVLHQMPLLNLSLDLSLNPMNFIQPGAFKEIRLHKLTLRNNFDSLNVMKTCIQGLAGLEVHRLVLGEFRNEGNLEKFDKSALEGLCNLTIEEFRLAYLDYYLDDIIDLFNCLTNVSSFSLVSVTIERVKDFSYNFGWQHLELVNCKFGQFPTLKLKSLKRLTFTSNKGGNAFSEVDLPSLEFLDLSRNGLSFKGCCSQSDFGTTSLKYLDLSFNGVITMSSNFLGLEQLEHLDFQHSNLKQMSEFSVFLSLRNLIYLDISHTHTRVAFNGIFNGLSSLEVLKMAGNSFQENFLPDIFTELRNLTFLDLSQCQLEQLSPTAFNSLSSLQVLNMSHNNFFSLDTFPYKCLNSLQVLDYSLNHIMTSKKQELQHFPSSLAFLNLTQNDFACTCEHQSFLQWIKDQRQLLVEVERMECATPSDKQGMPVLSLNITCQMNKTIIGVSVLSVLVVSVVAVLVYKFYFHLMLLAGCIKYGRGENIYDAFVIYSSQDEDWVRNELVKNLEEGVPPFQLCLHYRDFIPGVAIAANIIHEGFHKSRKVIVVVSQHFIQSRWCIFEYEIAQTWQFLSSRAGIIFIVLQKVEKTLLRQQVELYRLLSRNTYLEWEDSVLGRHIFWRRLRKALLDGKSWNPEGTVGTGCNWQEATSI
T1 sequence (Q9Y6Y9 17-160 partner limits assumed, species assumed): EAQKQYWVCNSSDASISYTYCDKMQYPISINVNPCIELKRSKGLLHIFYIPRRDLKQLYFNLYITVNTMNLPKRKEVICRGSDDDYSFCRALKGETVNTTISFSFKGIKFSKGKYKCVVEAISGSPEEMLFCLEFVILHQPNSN
Procedure: Stimulation of the Toll-like receptor 4 (TLR4) was determined by assessing activation of the transcription factor NF-κB in HEK293 cells that were engineered to express TLR4. Assessment of TLR4 stimulation was based on the use of an NE-κB-inducible secreted alkaline phosphatase (SEAP) reporter system in which the SEAP reporter was under the control of a promoter inducible by NF-κB. Thus, the degree of activation of TLR4 can be indirectly quantified spectrophotometrically by measuring the amount of the SEAP reporter that is produced.
The TLR4-expressing cells were plated in HEK-Blue Detection (Invivogen, San Diego, Calif.) medium in a 96-well plate (25,000-50,000 cells/well). The cells were stimulated with lipopolysaccharides (LPS) alone or in combination with the compound of Example 1. Cell culture without LPS and the compound of Example 1 was defined as baseline control. To test whether the compound of Example 1 could block that activation of the TLR4, the cells were treated with the designated compound (10, 20 or 100 μM) and LPS (final conc. 10 ng/ml/well). After an incubation period (16-24 hours) at 37° C. in a CO2 incubator, the signals of individual samples in 96-well plates were detected at O.D.650 nm with a Molecular Devices SpectraMax i3 Imaging Cytometer. The TLR4 activity was expressed in percentage of LPS alone-stimulated cells minus baseline control.

RAW264.7 cells = experiment: Cell viability (MTT) of RAW264.7 cells; details: for Cell Viability (%) mean: Test Con. 10 μM, MTT, RAW264.7 cells, percentage of viable LPS-stimulated cells; for toxic activity toward RAW264.7 cells (in words): Table 2, 10 μM
Procedure: (§1) RAW264.7 cells (1.6×10^5 cells/well) or HEK 293 cells (2.5-5.0×10^4 cells/well) were seeded in 96-well plate overnight and treated with different compounds for 16-24 hours. Cells' growth were determined by MTT-based colorimetric assays. Viability of the test cells treated with vehicle (0.5% DMSO) only was defined as 100% viable. Survival of cells after treatment with DETDs was calculated using the following formula: viable cell number (%)=OD570 (treated cell culture)/OD570 (vehicle control)×100.
(§2) The cell viability assay was performed by the MTT method, in which cells were incubated with 45 μl of 5 mg/ml MTT for 1 hour at 37° C., and 150 μl of DMSO was added at the end of culture to dissolve the crystals. The signals of individual samples in 96-well plates were detected at O.D.570 nm with a Molecular Devices SpectraMax i3 Imaging Cytometer. Cell viability was expressed in percentage of viable LPS-stimulated cells.

HEK293 cells = experiment: Cell viability (MTT) of the TLR4-expressing HEK293 cells; details: Test Con. 10 μM, percentage of viable LPS-stimulated cells
Procedure: as §1
as §2, with “method. Cells” for “method, in which cells”

[2] = tested on: mTNF-α secretion from LPS-stimulated RAW264.7 monocytes; experiment: LPS induced mTNF-α release from RAW264.7 cells (ELISA); details: Mus musculus
Procedure: To confirm whether the inhibitory effect of the selected compounds of example 2.1 (i.e., Compounds 12, 15, 19, 20, 22, 24, 28, 30, 32, 34, 36, 38, 40, 42, 44, 45, 49, 50, 52 and 70) translates to anti-inflammation, they were further tested to see if any of them may suppress mTNF-α secretion from lipopolysaccharide (LPS)-stimulated RAW264.7 monocytes.
To this purpose, RAW264.7 cells were seeded at 1.6×10^5 cells/well into 96-well culture plates. Test compounds (i.e., Compounds 12, 15, 19, 20, 22, 24, 28, 30, 32, 34, 36, 38, 40, 42, 44, 45, 49, 50, 52 and 70, respectively at 10 μM) were added into the culture plates in triplicate and co-cultured at 37° C. in 5% CO2 for 30 minutes. LPS (final conc. 10 ng/ml/well) was then added into the culture plates and the cells were incubated for another 4 hours. At the end of culture, the cultured media were harvested for mTNF-α quantification by ELISA with commercial assay kits (R&D Systems, Minneapolis, Minn.) following the manufacturer's protocol. Signals of the individual samples in 96-well plates were detected at O.D.450 nm/570 nm with a Molecular Devices SpectraMax i3 Imaging Cytometer. The mTNF-α activity was expressed in percentage of viable LPS-stimulated cells without test compound treatment.

[3] = RAW264.7, Table 2, 10 μM, read-out: inhibition of LPS induced mTNF-α release from RAW264.7 cells
[4] = Test Con. 10 μM, LPS 10 ng/ml, 4 hours, RAW264.7 cells, read-out: mTNF-α inhibition (%) mean

SMILES | inhibition at 10 µM [1] [%] | activity towards TLR-4 (in words) [1] | Cell Viability (%) mean (RAW264.7 cells) [%] | Cell Viability (%) mean (HEK293 cells) [%] | inhibition at 10 µM [2, 3] [%] | inhibition at 10 µM [2, 4] [%] | toxic activity toward RAW264.7 cells (in words) (RAW264.7 cells)
C=CC(=O)N(c1ccc(F)cc1Cl)S(=O)(=O)c1ccccc1S(C)(=O)=O [Compound 32] | 100 | strong antagonist | 48.3 | 84.5 | 85 to 100 | 97.5 | –
C=CC(=O)N(c1ccc(F)cc1Cl)S(=O)(=O)Cc1ccccc1 [Compound 36] | 67.3 | moderate inhibitory activity | 102.8 | 107.0 | ~13 | 13 | negligible to no toxic activity
C=CC(=O)N(C1CC1)S(=O)(=O)c1ccc(F)cc1Cl [Compound 40] | 100 | strong antagonist | 93.5 | 85.5 | 85 to 100 | 99.7 | negligible to no toxic activity
C=CC(=O)Nc1ccccc1S(=O)(=O)Nc1ccc(F)cc1Cl [Compound 44] | 100 | strong antagonist | 96.1 | 81.4 | 85 to 100 | 94.1 | negligible to no toxic activity
C=C(C)C(=O)Nc1ccccc1S(=O)(=O)Nc1ccc(F)cc1Cl [Compound 45] | 65.6 | moderate inhibitory activity | 98.3 | 100.7 | ~40 | 41.1 | negligible to no toxic activity
C=CC(=O)N(c1ccc(F)cc1Cl)S(=O)(=O)N1CCCC1 [Compound 50] | 76 | moderate inhibitory activity | 97.6 | 85.1 | 85 to 100 | 86.1 | negligible to no toxic activity
C=CC(=O)N(c1ccc(F)cc1Cl)S(=O)(=O)N1CCCCC1C(=O)OC (stereo not shown) [Compound 52] | 100 | strong antagonist | 88.1 | 92.2 | 85 to 100 | 97.2 | negligible to no toxic activity
C=CC(=O)c1ccccc1S(=O)(=O)N(C)c1ccccc1 [Compound 70] | 100 | strong antagonist | 69.6 | 79.7 | 85 to 100 | 100 | –

The next lines start with results.

inhibition at 10 µM [1] [%] | activity towards TLR-4 (in words) [1] | SMILES | Cell Viability (%) mean (RAW264.7 cells) [%] | Cell Viability (%) mean (HEK293 cells) [%] | inhibition at 10 µM [2, 3] [%] | inhibition at 10 µM [2, 4] [%] | toxic activity toward RAW264.7 cells (in words) (RAW264.7 cells)
100 | strong antagonist | C=CC(=O)N(c1ccc(F)cc1Cl)S(=O)(=O)c1c(C)noc1C [Compound 34] | 53.9 | 63.0 | 85 to 100 | 98.5 | –
100 | strong antagonist | C=CC(=O)N(c1ccc(F)cc1Cl)S(=O)(=O)N1CCOC1=O [Compound 38] | 48.0 | 61.6 | 85 to 100 | 97.1 | –
100 | strong antagonist | C=CC(=O)N(c1ccc(F)cc1Cl)S(=O)(=O)c1c(C)oc(C)c1C(=O)OC [Compound 42] | 27.8 | 72.4 | 85 to 100 | 98.6 | –
76.2 | moderate inhibitory activity | C=CC(=O)N(c1ccc(F)cc1Cl)S(=O)(=O)N1CCC[C@H]1C(=O)OC [Compound 49] | 81.6 | 108.5 | 85 to 100 | 98.8 | negligible to no toxic activity
